Measured values: patent US20260022142A1, “MACROCYCLIC IMMUNOMODULATORS” (Bristol-Myers Squibb Company, priority 2022, published 2026)
Bridge positions count the residues as written; N and C are the ends. Square brackets hold non-standard residues; d marks the D form. Peptide text beside a SMILES is read from it. * marks the point of attachment. ξ: configuration not given here. Phe(4-COOH) = N[C@@H](Cc1ccc(C(=O)O)cc1)C(=O)O; Bip = N[C@@H](Cc1ccc(-c2ccccc2)cc1)C(=O)O; Phe(4-CN) = N#Cc1ccc(C[C@H](N)C(=O)O)cc1; Phe(3-Me) = Cc1cccc(C[C@H](N)C(=O)O)c1; NH(CH2)12COOH = O=C(O)CCCCCCCCCCCCN*; Val(3-OH) = CC(C)(O)[C@H](N)C(=O)O; Val(3-F) = CC(C)(F)[C@H](N)C(=O)O; 4Pal = N[C@@H](Cc1ccncc1)C(=O)O; Cha = N[C@@H](CC1CCCCC1)C(=O)O; Cit = NC(=O)NCCC[C@H](N)C(=O)O; Ile(3ξ) = CCC(C)[C@H](N)C(=O)O; Thr(3ξ) = CC(O)[C@H](N)C(=O)O; 12Ado = NCCCCCCCCCCCC(=O)O; Carboxymethyl = O=C(O)C*; Orn = NCCC[C@H](N)C(=O)O; Aun = NCCCCCCCCCCC(=O)O; Dab = NCC[C@H](N)C(=O)O; Dap = NC[C@H](N)C(=O)O; AEEA = NCCOCCOCC(=O)O; ξDab = NCCC(N)C(=O)O

target: T1, PD-1/PD-L1 interaction (PE-labeled human PD-L1-Ig binding to Jurkat cell line over-expressing human PD-1) (Homo sapiens, UniProt Q15116); test: Jurkat-PD-1 Cell Binding High-Content Screening Assay (CBA); format: cell-based; conditions: Jurkat cell line over-expressing human PD-1; PE-labeled PD-L1-Ig 20 nM final; read-out: Jurkat hPD1-PDL1 IC50
T1 construct: expressed in transfected cells; host or cells: Jurkat
In short: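 Jurkat-hPD-1 cells, DMEM/10% FCS; cpd 2 h 37° C; PE-PD-L1-Ig 20 nM final, 1 h; 4% PFA fix + Hoechst 33342, 3× dPBS wash; high-content imaging read-out.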

T1 sequence (Q15116 25-288): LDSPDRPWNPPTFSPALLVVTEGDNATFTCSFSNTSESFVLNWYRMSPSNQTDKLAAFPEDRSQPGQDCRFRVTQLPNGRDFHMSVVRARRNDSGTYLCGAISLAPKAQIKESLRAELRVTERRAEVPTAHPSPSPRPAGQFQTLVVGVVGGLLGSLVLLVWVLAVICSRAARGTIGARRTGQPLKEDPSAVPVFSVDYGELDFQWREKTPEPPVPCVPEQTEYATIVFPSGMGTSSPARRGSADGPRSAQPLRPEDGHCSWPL

Compound | IC50 [nM]
CCC(C)[C@@H]1NC(=O)[C@H](Cc2ccc(-c3ccccc3)cc2)NC(=O)[C@H](C(C)C)NC(=O)[C@H](Cc2c[nH]c3ccccc23)NC(=O)[C@H](CC(=O)O)NC(=O)[C@H](Cc2ccc(OCC(=O)O)cc2)NC(=O)[C@H](C(C)O)NC(=O)CSC[C@@H](C(=O)N[C@@H](CCCN)C(=O)NCCCCCCCCCCCC(=O)O)NC(=O)[C@H](C(C)O)NC(=O)[C@H](C(C)C)NC(=O)[C@H](CC2CCCCC2)NC(=O)[C@H](CCN)NC(=O)[C@@H](CC(C)C)NC(=O)[C@H](CCCN)NC1=O (stereo partly drawn) [Compound 3097] ({CH2CO}-[Thr(3ξ)]Y(Carboxymethyl)DWV[Bip][Ile(3ξ)][Orn][dL][Dab][Cha]V[Thr(3ξ)]C[Orn][12Ado]-OH; thioether N-14) | 22.8
CC(C)C[C@H]1NC(=O)[C@H](CCCN)NC(=O)[C@H](Cc2ccc(O)cc2)NC(=O)[C@H](Cc2ccc(-c3ccccc3)cc2)NC(=O)[C@H](C(C)C)NC(=O)[C@H](Cc2c[nH]c3ccccc23)NC(=O)[C@H](CC(=O)O)NC(=O)[C@H](Cc2ccc(OCC(=O)O)cc2)NC(=O)[C@H](CCCNC(=N)N)NC(=O)CSC[C@@H](C(=O)NCCOCCOCC(=O)NCCCCCCCCCCC(=O)O)NC(=O)[C@H](C(C)O)NC(=O)[C@H](C(C)C)NC(=O)[C@H](CC2CCCCC2)NC(=O)[C@H](CCN)NC1=O (stereo partly drawn) [Compound 3393] ({CH2CO}-RY(Carboxymethyl)DWV[Bip]Y[Orn][dL][Dab][Cha]V[Thr(3ξ)]C[AEEA][Aun]-OH; thioether N-14) | 12.8
Cc1cccc(C[C@@H]2NC(=O)[C@H](CC(=O)O)NC(=O)[C@H](Cc3ccc(OCC(=O)O)cc3)NC(=O)[C@H](CCCNC(=N)N)NC(=O)CSC[C@@H](C(=O)N[C@@H](CCN)C(=O)NCCCCCCCCCCC(=O)O)NC(=O)[C@H](CCC(N)=O)NC(=O)[C@H](C(C)C)NC(=O)[C@H](CC3CCCCC3)NC(=O)[C@H](CCN)NC(=O)[C@@H](CC(C)C)NC(=O)[C@H](CCCN)NC(=O)[C@H](Cc3ccc(OCC(=O)O)cc3)NC(=O)[C@H](Cc3ccc(-c4ccccc4)cc3)NC(=O)[C@H](C(C)(C)F)NC2=O)c1 [Compound 2122] ({CH2CO}-RY(Carboxymethyl)D[Phe(3-Me)][Val(3-F)][Bip]Y(Carboxymethyl)[Orn][dL][Dab][Cha]VQC[Dab][Aun]-OH; thioether N-14) | 10.9
Cc1cccc(C[C@@H]2NC(=O)[C@H](CC(=O)O)NC(=O)[C@H](Cc3ccc(O)cc3)NC(=O)[C@H](Cc3ccncc3)NC(=O)CSC[C@@H](C(=O)N[C@@H](CCN)C(=O)NCCCCCCCCCCC(=O)O)NC(=O)[C@H]([C@@H](C)O)NC(=O)[C@H](C(C)C)NC(=O)[C@H](CC3CCCCC3)NC(=O)[C@H](CCN)NC(=O)[C@@H](CC(C)C)NC(=O)[C@H](CCCN)NC(=O)[C@H](Cc3ccc(O)cc3)NC(=O)[C@H](Cc3ccc(-c4ccccc4)cc3)NC(=O)[C@H](C(C)C)NC2=O)c1 [Compound 2745] ({CH2CO}-[4Pal]YD[Phe(3-Me)]V[Bip]Y[Orn][dL][Dab][Cha]VTC[Dab][Aun]-OH; thioether N-14) | 262
CC[C@H](C)[C@@H]1NC(=O)[C@H](Cc2ccc(-c3ccccc3)cc2)NC(=O)[C@H](C(C)C)NC(=O)[C@H](Cc2cccc(C)c2)NC(=O)[C@H](CC(=O)O)NC(=O)[C@H](Cc2ccc(OCC(=O)O)cc2)NC(=O)[C@H](CN)NC(=O)CSC[C@@H](C(=O)N[C@@H](CCN)C(=O)NCCOCCOCC(=O)NCCCCCCCCCCC(=O)O)NC(=O)[C@H](CN)NC(=O)[C@H](C(C)C)NC(=O)[C@H](CC2CCCCC2)NC(=O)[C@H](CCN)NC(=O)[C@@H](CC(C)C)NC(=O)[C@H](CCCN)NC1=O [Compound 2634] ({CH2CO}-[Dap]Y(Carboxymethyl)D[Phe(3-Me)]V[Bip]I[Orn][dL][Dab][Cha]V[Dap]C[Dab][AEEA][Aun]-OH; thioether N-14) | 14.1
Cc1cccc(C[C@@H]2NC(=O)[C@H](CC(=O)O)NC(=O)[C@H](Cc3ccc(C(=O)O)cc3)NC(=O)[C@H](Cc3ccc(C#N)cc3)NC(=O)CSC[C@@H](C(=O)N[C@@H](CCN)C(=O)NCCOCCOCC(=O)NCCCCCCCCCCC(=O)O)NC(=O)[C@H](CO)NC(=O)[C@H](C(C)(C)O)NC(=O)[C@H](CC3CCCCC3)NC(=O)[C@H](CCN)NC(=O)[C@@H](CC(C)C)NC(=O)[C@H](CCCN)NC(=O)[C@H](Cc3ccc(OCC(=O)O)cc3)NC(=O)[C@H](Cc3ccc(-c4ccccc4)cc3)NC(=O)[C@H](Cc3ccc(OCC(=O)O)cc3)NC2=O)c1 [Compound 2242] ({CH2CO}-[Phe(4-CN)][Phe(4-COOH)]D[Phe(3-Me)]Y(Carboxymethyl)[Bip]Y(Carboxymethyl)[Orn][dL][Dab][Cha][Val(3-OH)]SC[Dab][AEEA][Aun]-OH; thioether N-14) | 4

More lines, in order of falling IC50, values ahead:

IC50 [nM] | Compound
103 | Cc1cccc(C[C@@H]2NC(=O)[C@H](CC(=O)O)NC(=O)[C@H](Cc3ccc(OCC(=O)O)cc3)NC(=O)[C@H](CCCNC(=N)N)NC(=O)CSC[C@@H](C(=O)NC(CCN)C(=O)NCCCCCCCCCCCC(=O)O)NC(=O)[C@H](C(C)O)NC(=O)[C@H](C(C)C)NC(=O)[C@H](CC3CCCCC3)NC(=O)[C@H](Cc3c[nH]cn3)NC(=O)[C@@H](CC(C)C)NC(=O)[C@H](CCCN)NC(=O)[C@H](CCCNC(N)=O)NC(=O)[C@H](Cc3ccc(-c4ccccc4)cc3)NC(=O)[C@H](C(C)C)NC2=O)c1 (stereo partly drawn) [Compound 3501] ({CH2CO}-RY(Carboxymethyl)D[Phe(3-Me)]V[Bip][Cit][Orn][dL]H[Cha]V[Thr(3ξ)]C[ξDab][12Ado]-OH; thioether N-14)
22.2 | Cc1cccc(C[C@@H]2NC(=O)[C@H](CC(=O)O)NC(=O)[C@H](Cc3ccc(OCC(=O)O)cc3)NC(=O)[C@H](CN)NC(=O)CSC[C@@H](C(=O)NCC(=O)NCCCCCCCCCCC(=O)O)NC(=O)[C@H]([C@@H](C)O)NC(=O)[C@H](C(C)C)NC(=O)[C@H](CC3CCCCC3)NC(=O)[C@H](CCN)NC(=O)[C@@H](CC(C)C)NC(=O)[C@H](CCCN)NC(=O)[C@H](CCCNC(N)=O)NC(=O)[C@H](Cc3ccc(-c4ccccc4)cc3)NC(=O)[C@H](C(C)C)NC2=O)c1 [Compound 1295] ({CH2CO}-[Dap]Y(Carboxymethyl)D[Phe(3-Me)]V[Bip][Cit][Orn][dL][Dab][Cha]VTCG[Aun]-OH; thioether N-14)
14.6 | CC(C)C[C@H]1NC(=O)[C@H](CCCN)NC(=O)[C@H](C(C)C)NC(=O)[C@H](Cc2ccc(-c3ccccc3)cc2)NC(=O)[C@H](C(C)C)NC(=O)[C@H](Cc2c[nH]c3ccccc23)NC(=O)[C@H](CC(=O)O)NC(=O)[C@H](Cc2ccc(OCC(=O)O)cc2)NC(=O)[C@H](CCCNC(=N)N)NC(=O)CSC[C@@H](C(=O)N[C@@H](CCCN)C(=O)NCCCCCCCCCCC(=O)O)NC(=O)[C@H](C(C)O)NC(=O)[C@H](C(C)C)NC(=O)[C@H](CC2CCCCC2)NC(=O)[C@H](CCN)NC1=O (stereo partly drawn) [Compound 3344] ({CH2CO}-RY(Carboxymethyl)DWV[Bip]V[Orn][dL][Dab][Cha]V[Thr(3ξ)]C[Orn][Aun]-OH; thioether N-14)
11.6 | CC(C)C[C@H]1NC(=O)[C@H](CCCN)NC(=O)[C@H](C(C)C)NC(=O)[C@H](Cc2ccc(-c3ccccc3)cc2)NC(=O)[C@H](C(C)C)NC(=O)[C@H](Cc2c[nH]c3ccccc23)NC(=O)[C@H](CC(=O)O)NC(=O)[C@H](Cc2ccc(OCC(=O)O)cc2)NC(=O)[C@H](Cc2ccc(OCC(=O)O)cc2)NC(=O)CSC[C@@H](C(=O)N[C@@H](CCN)C(=O)NCCOCCOCC(=O)NCCCCCCCCCCC(=O)O)NC(=O)[C@H](CCCNC(=N)N)NC(=O)[C@H](C(C)C)NC(=O)[C@H](CC2CCCCC2)NC(=O)[C@H](CCN)NC1=O [Compound 2548] ({CH2CO}-Y(Carboxymethyl)Y(Carboxymethyl)DWV[Bip]V[Orn][dL][Dab][Cha]VRC[Dab][AEEA][Aun]-OH; thioether N-14)
10.2 | Cc1cccc(C[C@@H]2NC(=O)[C@H](CC(=O)O)NC(=O)[C@H](Cc3ccc(OCC(=O)O)cc3)NC(=O)[C@H](CCN)NC(=O)CSC[C@@H](C(=O)N[C@@H](CCN)C(=O)NCCOCCOCC(=O)NCCOCCOCC(=O)N[C@@H](CC(=O)NCCCCCCCCCCCCC(=O)O)C(=O)O)NC(=O)[C@H](Cc3cnc[nH]3)NC(=O)[C@H](C(C)(C)O)NC(=O)[C@H](CC3CCCCC3)NC(=O)[C@H](CCN)NC(=O)[C@@H](CC(C)C)NC(=O)[C@H](CCCN)NC(=O)[C@H](Cc3ccc(C(=O)O)cc3)NC(=O)[C@H](Cc3ccc(-c4ccccc4)cc3)NC(=O)[C@H](Cc3ccc(C(=O)O)cc3)NC2=O)c1 [Compound 1255] ({CH2CO}-[Dab]Y(Carboxymethyl)D[Phe(3-Me)][Phe(4-COOH)][Bip][Phe(4-COOH)][Orn][dL][Dab][Cha][Val(3-OH)]HC[Dab][AEEA][AEEA]D(NH(CH2)12COOH)-OH; thioether N-14)
9.7 | Cc1cccc(C[C@@H]2NC(=O)[C@H](CC(=O)O)NC(=O)[C@H](Cc3ccc(OCC(=O)O)cc3)NC(=O)[C@H](CN)NC(=O)CSC[C@@H](C(=O)N[C@@H](CCCCN)C(=O)NCCOCCOCC(=O)NCCCCCCCCCCC(=O)O)NC(=O)[C@H](CCCN)NC(=O)[C@H](C(C)C)NC(=O)[C@H](CC3CCCCC3)NC(=O)[C@H](CCN)NC(=O)[C@@H](CC(C)C)NC(=O)[C@H](CCCN)NC(=O)[C@H](CCCNC(N)=O)NC(=O)[C@H](Cc3ccc(-c4ccccc4)cc3)NC(=O)[C@H](C(C)C)NC2=O)c1 [Compound 2651] ({CH2CO}-[Dap]Y(Carboxymethyl)D[Phe(3-Me)]V[Bip][Cit][Orn][dL][Dab][Cha]V[Orn]CK[AEEA][Aun]-OH; thioether N-14)
6.3 | Cc1cccc(C[C@@H]2NC(=O)[C@H](CC(=O)O)NC(=O)[C@H](Cc3ccc(OCC(=O)O)cc3)NC(=O)[C@H](CN)NC(=O)CSC[C@@H](C(=O)N[C@@H](CCCCN)C(=O)NCCCCCCCCCCC(=O)O)NC(=O)[C@H](CN)NC(=O)[C@H](C(C)C)NC(=O)[C@H](CC3CCCCC3)NC(=O)[C@H](CCN)NC(=O)[C@@H](CC(C)C)NC(=O)[C@H](CCCN)NC(=O)[C@H](C(C)C)NC(=O)[C@H](Cc3ccc(-c4ccccc4)cc3)NC(=O)[C@H](C(C)C)NC2=O)c1 [Compound 2534] ({CH2CO}-[Dap]Y(Carboxymethyl)D[Phe(3-Me)]V[Bip]V[Orn][dL][Dab][Cha]V[Dap]CK[Aun]-OH; thioether N-14)
